Source: US20080095856A1, “Encapsulated Nanoparticles for Drug Delivery” (priority 2006, published 2008)
Peptide text beside a SMILES is read from it. * marks the point of attachment. X1 = O=C(O)[C@H]1CSC(c2nc3ccc(N*)cc3s2)=N1

Assays:
[1] = DPPH radical scavenger assay of antioxidative activity before and after SAS processing; assay type: biochemical; settings: maximum UV absorbance before and after addition of quercetin
Source text: The antioxidative activity of quercetin has not been diminished by this supercritical fluid process for nanoparticle formation. A radical scavenger DPPH (2,2,-diphenyl-1-picrylhydrazyl) was used to measure the EC50 value of DPPH at maximum UV absorbance before and after addition of quercetin.
Quercetin. Quercetin has been encapsulated with PLA (MW 50,000 and 100,000) using the following process parameters: T=40 C, P=100 bar, CO2 flow rate 50 g/min, 5:100 quercetin:polymer ratio using methanol as the cosolvent. Results can be seen in FIGS. 4A-4C. […] A radical scavenger DPPH (2,2,-diphenyl-1-picrylhydrazyl) was used to measure the EC50 value of DPPH at maximum UV absorbance before and after addition of quercetin.

[2] = Biodistribution of SKLQ-aminoluciferin by BLI in L2G85 mice; assay type: in vivo
Source text: PSA is a chymotrypsin-like enzyme which specifically cleaves the C-terminus of glutamine (Q) in the peptide sequence, SKLQ-aminoluciferin. Prodrugs have been used to take advantage of this specificity of PSA. […] Where the peptides or prodrugs are encapsulated with polymer, the current shortcomings in delivery of tumor-specific peptides is overcome. The peptides or drugs can be encapsulated with a protective polymer coating, and the payload released in the vascularized tumor regions. This approach prevents non-specific distribution of the drug and ensures stability of the peptide/drug, and utilizes the active proteases that are specific to a disease state to activate a prodrug at the region of interest.
The strategies developed for these studies are utilized in the study of biodistribution of luciferin nanoparticles. The nanoparticles are also tested using a xenograft model of prostate cancer. Appropriate cell lines have been developed for conducting experiments to study human prostate cancer models in animals. […] Both LNCaP and PC3M cells have successfully been implanted into SCID mice, and their growth kinetics have been successfully quantified using BLI. Luciferase present in the cells is used as the read out for delivery of luciferin and can also be used as for assessing tumor burden when we transition to testing chemotherapeutic agents. […]

SMILES	EC50 value of DPPH, before vs after SAS processing [1]	distribution in the animal ([2]; L2G85 mice)	stability in the body ([2]; in vivo, acted upon by various enzymes)
O=c1c(O)c(-c2ccc(O)c(O)c2)oc2cc(O)cc(O)c12 [quercetin]	the same before and after SAS processing	–	–
CC(C)C[C@H](NC(=O)[C@H](CCCCN)NC(=O)[C@@H](N)CO)C(=O)N[C@@H](CCC(N)=O)C(=O)Nc1ccc2nc(C3=N[C@@H](C(=O)O)CS3)sc2c1 [SKLQ-aminoluciferin] (H-SKLQ-X1; N-terminus and C-terminus assumed)	–	distributed non-specifically throughout the animal	unstable in the body
